In paper PMC5108082, “Pharmacokinetics, toxicity, and cytochrome P450 modulatory activity of plumbagin” (BMC Pharmacology & Toxicology, 2016):

Columns and labels:
CYP3A11 = details: mouse, in vivo, po
Description: Mice were divided into four groups (3 male mice each). Mice in the treated groups were fed with plumbagin at a daily oral dose of 25, 12.5, or 6.25 mg/kg body weight (1 mL) for 28 days. The control group received a daily oral dose (1 mL) of 20 % Tween-80 for 28 days. At the end of the experiment period, all animals were sacrificed under ether anesthesia and livers were removed for investigation of the modulatory effect of plumbagin on hepatic CYP1A2 and CYP3A11.
The liver samples were rinsed with ice-cold, 0.9 %NaCl, homogenized in 50 mM sodium phosphate buffer (pH 7.4) containing 0.1 mM EDTA, and centrifuged at 9000 × g for 20 min. […] Protein concentrations were determined by Bradford protein assay and the suspended microsomes were aliquoted and stored at −80 °C until use. […]
The incubation mixture of 500 μL containing the selective substrate (20 μM phenacetin and 40 μm nifedipine for CYP1A2 and CYP3A11, respectively), mice liver microsomes (in 100 mM phosphate buffer pH 7.4) was pre-incubated at 37 °C for 5 min in a shaking water bath. […] Concentrations of paracetamol (metabolite of CYP1A2) and oxidized nifedipine (metabolite of CYP3A11) in the incubation mixtures were determined using HPLC with UV detection. […]

[1] = system: 3D7 chloroquine-sensitive P. falciparum; details: 3D7 clone; read-out: median IC50; cited from earlier work

SMILES: CC1=CC(=O)c2c(O)cccc2C1=O [plumbagin, 5-hydroxy-2-methyl-1,4-naphthoquinone]
- trend of CYP3A11 mRNA expression and enzyme activity (CYP3A11): a trend of reduction
- IC50 [1]: 580 nM
